Test results from US10881636B2, “Dihydroartemisinin-steroid conjugate and preparation method and application thereof” (YUNBAIYAO ZHENGWU SCIENCE AND TECHNOLOGY (SHANGHAI) CO., …, priority 2017, dated 2021).
Like-named read-outs stand apart in the source and are kept apart here.

Columns and labels:
HeLa cells (CCL-2) = assay: Tumor cell growth inhibition, CCK-8 assay; type: cell-based; details: Homo sapiens, 48 h, CCK-8, growth inhibition
Method: (§1) African green monkey kidney cells-Vero cells (CCL-81) were used as normal cells to evaluate the cytotoxic effects of the compounds. Under the intervention of such compounds, the living cells can be stained using a cell proliferation-cytotoxicity assay kit Cell Counting Kit-8 (CCK-8 solution), and the OD value was measured to reflect the survival and growth state of the cells, that is, the cell survival rate (%) and the cell growth inhibition rate (%).
(§2) The culture solution containing 10% FBS was regarded as a complete medium. […] After all the cells were cultured to logarithmic growth phase, the tests were performed as follows.
(§3) The adherent cells were digested by pancreatin and suspended to directly collect cells. The cell suspension was centrifuged, and after counted, the cells were seeded in a transparent 96-well culture plate and adjusted to 5×10^3 cells/100 μL/well with respective complete mediums. At the same time, each plate was provided with blank wells without cells and samples and control wells with cells but without samples. The 96-well culture plates were then cultured overnight in a 37° C., 5% CO2 incubator. The test compounds were added at 50 μL/well on the next day, and respective complete mediums were added at the same amount. […] While for the control wells and blank wells, complete mediums rather than the compound samples were added, where the complete culture medium was also added at 100 μL/well. […] 2 h before the end of the incubation, the culture medium was removed, and complete culture medium containing 10% CCK-8 solution was added at 100 μL/well.
(§4) The CC50 was calculated according to the survival rate (%) of Vero cells to reflect the cytotoxic effect of the compounds. The IC50 was calculated according to the growth inhibition (%) of the tumor cells to reflect the antitumor activity of the samples.

PC-3 cells (CRL-1435) = assay: Tumor cell growth inhibition, CCK-8 assay; type: cell-based; details: Homo sapiens, 48 h, CCK-8, growth inhibition, read-out: PC3 IC50
Method: as §1, §2, §3, §4

786-O cells (CRL-1932) = assay: Tumor cell growth inhibition, CCK-8 assay; type: cell-based; details: Homo sapiens, 786-0; 48 h, CCK-8, growth inhibition
Method: as §1, §2, §3, §4

MCF7 cells (HTB-22) = assay: Tumor cell growth inhibition, CCK-8 assay; type: cell-based; details: Homo sapiens, 48 h, CCK-8, growth inhibition
Method: as §1, §2, §3, §4

Jurkat cells (TIB-152) = assay: Tumor cell growth inhibition, CCK-8 assay; type: cell-based; details: Homo sapiens, 48 h, CCK-8, growth inhibition
Method: as §1, §2, §3, §4

[1] = Cytotoxicity on normal cells, CCK-8 assay; type: cell-based; details: African green monkey
Method: as §1, §2, §3, §4

A549 = assay: Tumor cell growth inhibition; type: cell-based; details: Homo sapiens
Method: as §3, §4

U87 = assay: Inhibitory effects on various tumor cells; type: cell-based; details: Homo sapiens, U-87 MG
Method: as §3, §4

NB4 = assay: Inhibitory effects on various tumor cells; type: cell-based; details: Homo sapiens, NB-4
Method: as §3, §4

HC7116 = assay: Inhibitory effects on various tumor cells; type: cell-based
Method: as §3, §4

HEPG-2 = assay: Inhibitory effects on various tumor cells; type: cell-based; details: Homo sapiens, HepG2; HEPG-2 cells
Method: as §3, §4

K562 = assay: Inhibitory effects on various tumor cells; type: cell-based; details: Homo sapiens
Method: as §3, §4

DU-145 = assay: Inhibitory effects on various tumor cells; type: cell-based; details: Homo sapiens; DU-145 cells
Method: as §3, §4

RCC4 vhl = assay: Inhibitory effects on various tumor cells; type: cell-based; details: Homo sapiens
Method: as §3, §4

OV-90 = assay: Inhibitory effects on various tumor cells; type: cell-based; details: Homo sapiens; OV-90 cells
Method: as §3, §4

U2OS = assay: Inhibitory effects on various tumor cells; type: cell-based; details: Homo sapiens
Method: as §3, §4

Kasumi = assay: Inhibitory effects on various tumor cells; type: cell-based
Method: as §3, §4

SW1990 = assay: Inhibitory effects on various tumor cells; type: cell-based; details: Homo sapiens
Method: as §3, §4

RCC-4 = assay: Inhibitory effects on various tumor cells; type: cell-based; details: Homo sapiens, RCC4; RCC-4 cells
Method: as §3, §4

[2] = system: human non-small cell lung cancer cells A549; assay: Xenograft model of human lung cancer cell A549; details: nude mice, 10 mg/kg intraperitoneal, 28 days; for deaths during treatment: JZ-02 group 9 mice, paclitaxel group 5 mice; for tumor inhibition rate: from tumor tissue weight
Source text: 23 BALB/c nude mice, weighing 18-22 g and aged 2-4 weeks, were used in the experiment.

[3] = Vero normal cells, 48 h, CCK-8, cell survival rate, read-out: Vero CC50

SMILES	IC50 (HeLa cells (CCL-2)) [nM]	IC50 (PC-3 cells (CRL-1435)) [nM]	IC50 (786-O cells (CRL-1932)) [nM]	IC50 (MCF7 cells (HTB-22)) [nM]	IC50 (Jurkat cells (TIB-152)) [nM]	CC50 at 48 h [1] [nM]	IC50 (A549) [nM]	IC50 (NB4) [nM]	IC50 (HC7116) [nM]	IC50 (HEPG-2) [nM]	IC50 (K562) [nM]	IC50 (DU-145) [nM]	IC50 (RCC4 vhl) [nM]	IC50 (OV-90) [nM]	IC50 (U2OS) [nM]	IC50 (Kasumi) [nM]	IC50 (SW1990) [nM]	IC50 (RCC-4) [nM]	deaths during treatment [2]	tumor inhibition rate [2] [%]	other results
C[C@H]1[C@@H](O)O[C@@H]2O[C@@]3(C)CC[C@H]4[C@H](C)CC[C@@H]1[C@@]24OO3 [Dihydroartemisinin]	1660	2020	1100	100000	100000	5880	2960														
C[C@H]1C(O[C@@H]2CC[C@@]3(C)C(C2)C[C@H](O)C2C3CC[C@@]3(C)C2CC[C@@H]3[C@H](C)CCC(=O)O)OC2OC3(C)CCC4[C@H](C)CCC1[C@@]24OO3 (stereo partly drawn) [JZ-2]	40	260	60	3390	240		20	157	157	500	157	625	30000	157	357	157	517	2500	no death	58	IC50 (U87): 517 nM; tumor growth (tumor growth curve, FIG. 1) [2]: significantly inhibit the tumor growth; CC50 at 48 h [1, 3]: 7810 nM
C[C@H]1C(O[C@@H]2CC[C@@]3(C)C(C2)C[C@@H](O)C2C3CC[C@@]3(C)C2CC[C@@H]3[C@H](C)CCC(=O)O)OC2O[C@@]3(C)CCC4[C@H](C)CCC1[C@@]24OO3 (stereo partly drawn) [JZ-4]	25000	25000	100000	35000	32000		2400														CC50 at 48 h [1, 3]: 100000 nM
CC(C)[C@@H](C)/C=C/[C@@H](C)[C@H]1CCC2C3=CC=C4CC(OC5OC6OC7(C)CCC8[C@H](C)CCC([C@H]5C)[C@@]68OO7)CC[C@]4(C)C3CC[C@@]21C (stereo partly drawn) [JZ-6]	100000	100000	100000	45000	34000	100000	6330														
CC(=O)O[C@H]1C(=O)[C@@]2(C)[C@H]([C@H](OC(=O)c3ccccc3)[C@]3(O)C[C@H](OC(=O)[C@H](O)[C@@H](NC(=O)c4ccccc4)c4ccccc4)C(C)=C1C3(C)C)[C@]1(OC(C)=O)CO[C@@H]1C[C@@H]2O [Taxol, paclitaxel, reference compound]	6	6	6	10	30	1500	6	10	10	10	10	10	30000	10	10	10	10	10000	one death	52	
